Source: US20120164104A1, “Composition and Methods of Treating Viral Infections and Viral Induced Tumors” (Chimerix, Inc., priority 2009, published 2012)
Values belong to the compound of their own block, whether it stands above or below them.

Experiments:
SiHa = assay: Cell proliferation assay (MTS or SRB), SiHa; assay type: cell-based, human; settings: Cervical, 3 days, read-out: IC50 (cell growth inhibition)
Description: (§1) In vitro cell proliferation assays were performed using a 96-well plate based MTSassay (CellTiter 96° AqueousOne Solution Cell Proliferation Assay, Promega) or SRB (Sulforhodamine-B) assay (1-3). Briefly, cells were plated in 100 μl medium on day 0 in 96-well microtiter plates (Falcon #3072). On day 1, 10 μl of serial dilutions of each compound (Nine 1:2 dilutions with a starting concentration of 100 μM; in some cases, a starting concentration of 400 μM (CMX001 or Cidofovir) or 1 μM (some standard agents)) were added in triplicates to the plates. For standard agents using DMSO as solvent, serial dilutions of DMSO with a starting concentration of 0.5% were also included as a vehicle control.
(§2) After incubation for 3 days at 37° C. in a humidified incubator, viable cells were measured either by MTS or SRB assay. For MTS assay, 20 μl of a 20:1 mixture of (3-(4,5-dimethylthiazol-2-yl)-5-(3-carboxymethoxyphenyl)-2-(4-sulfophenyl)-2H-tetrazolium, inner salt (MTS, 2 mg/ml) and an electron coupling reagent, phenazine methosulfate (PMS, 0.92 mg/ml in DPBS), was added to each well and incubated for 3 hours at 37° C. Absorbance was measured using a BioTek Synergy™ HT Multiple Detection microplate reader at 490 nm. For SRB assay, cells were fixed in situ with 50 μL of cold trichloroacetic acid (TCA, final concentration at 10% w/v) for 60 minutes. Cells were then washed 5 times with H2O and air-dried.
(§3) Next, cells were stained with 20 μL of 0.2% SRB in 1% acetic acid and incubated at room temperature for 30 minutes and unbound SRB was removed by washing 5 times with 1% acetic acid and air-dried. Finally, bound SRB stain was solubilized in 50 μL of 50 μM Tris buffer before taking an optical density measurement at 570 nm using the BioTek microplate reader. The growth inhibition data were expressed as the percentage of cell survival calculated from the background corrected absorbance. The surviving fraction of cells was determined by dividing the mean absorbance values of the test agent-treated samples by the mean absorbance values of untreated control. […]

C33A = assay: Cell proliferation assay (MTS or SRB), C33A; assay type: cell-based, human; settings: Cervical, 3 days, read-out: IC50 (cell growth inhibition)
Description: as §1, §2, §3

SK-OV-3 = assay: Cell proliferation assay (MTS or SRB), SK-OV-3; assay type: cell-based, human; settings: SK-OV-3, Ovarian, 3 days; read-out: IC50 (cell growth inhibition)
Description: as §1, §2, §3

OVCAR-3 = assay: Cell proliferation assay (MTS or SRB), OVCAR-3; assay type: cell-based, human; settings: OVCAR-3, Ovarian, 3 days; read-out: IC50 (cell growth inhibition)
Description: as §1, §2, §3

A2058 = assay: Cell proliferation assay (MTS or SRB), A2058; assay type: cell-based; settings: Homo sapiens, 72 h; A2058, Skin (melanoma), 3 days; read-out: IC50 (cell growth inhibition)
Description: as §1, §2
(§4) Next, cells were stained with 20 μL of 0.2% SRB in 1% acetic acid and incubated at room temperature for 30 minutes and unbound SRB was removed by washing 5 times with 1% acetic acid and air-dried. Finally, bound SRB stain was solubilized in 50 μL of 50 μM Tris buffer before taking an optical density measurement at 570 nm using the BioTek microplate reader. The growth inhibition data were expressed as the percentage of cell survival calculated from the background corrected absorbance. The surviving fraction of cells was determined by dividing the mean absorbance values of the test agent-treated samples by the mean absorbance values of untreated control.
(§5) Raw data were acquired using a BioTek Synergy™ HT Multiple Detection microplate reader and imported into Microsoft Excel for analysis. The average signal of each treatment was calculated from the triplicates after subtracting the blank signals. The percentage survival values were calculated using the following formula: % survival=(average signal of the drug treatment/average signal of untreated controls)×100. The data were finally imported into the Prism 4 software (GraphPad Software, San Diego, Calif.) to generate the dose-activity curves using non-linear regression curve fit and to calculate the IC50 values.

SK-MEL-2 = assay: Cell proliferation assay (MTS or SRB), SK-MEL-2; assay type: cell-based; settings: Homo sapiens, 72 h; SK-MEL-2, Skin (melanoma), 3 days; read-out: IC50 (cell growth inhibition)
Description: as §1, §2, §4, §5

H460 = assay: Cell proliferation assay (MTS or SRB), H460; assay type: cell-based; settings: Homo sapiens, NCI-H460, 72 h; H460, Lung, 3 days; read-out: IC50 (cell growth inhibition)
Description: as §1, §2, §3

PC-3 = assay: Cell proliferation assay (MTS or SRB), PC-3; assay type: cell-based; settings: Homo sapiens, 72 h; PC-3, Prostate, 3 days; read-out: IC50 (cell growth inhibition)
Description: as §1, §2, §3

MDA-231 = assay: Cell proliferation assay (MTS or SRB), MDA-231; assay type: cell-based; settings: Homo sapiens, MDA-MB-231, 72 h; MDA-231, Breast, 3 days; read-out: IC50 (cell growth inhibition)
Description: as §1, §2, §3

DU 145 = assay: Cell proliferation assay (MTS or SRB), DU 145; assay type: cell-based; settings: Homo sapiens, 72 h; DU 145, Prostate, 3 days; read-out: IC50 (cell growth inhibition)
Description: as §1, §2, §3

MCF-7 = assay: Cell proliferation assay (MTS or SRB), MCF-7; assay type: cell-based; settings: Homo sapiens, MCF7, 72 h; MCF-7, Breast, 3 days; read-out: IC50 (cell growth inhibition)
Description: as §1, §2, §3

A549 = assay: Cell proliferation assay (MTS or SRB), A549; assay type: cell-based; settings: Homo sapiens, 72 h; A549, Lung, 3 days; read-out: IC50 (cell growth inhibition)
Description: as §1, §2, §3

SCaBER = assay: Cell proliferation assay (MTS or SRB), SCaBER; assay type: cell-based; settings: Homo sapiens, 72 h, Bladder, 3 days, read-out: IC50 (cell growth inhibition)
Description: as §1, §2, §3

Hep G2 = assay: Cell proliferation assay (MTS or SRB), Hep G2; assay type: cell-based; settings: Homo sapiens, HepG2, 72 h; Hep G2, Liver, 3 days; read-out: IC50 (cell growth inhibition)
Description: as §1, §2, §3

Caki-2 = assay: Cell proliferation assay (MTS or SRB), Caki-2; assay type: cell-based; settings: Homo sapiens, 72 h; Caki-2, Kidney, 3 days; read-out: IC50 (cell growth inhibition)
Description: as §1, §2, §3

SK-HEP-1 = assay: Cell proliferation assay (MTS or SRB), SK-HEP-1; assay type: cell-based; settings: Homo sapiens, SK-HEP1, 72 h; SK-HEP-1, Liver, 3 days; read-out: IC50 (cell growth inhibition)
Description: as §1, §2, §3

Caki-1 = assay: Cell proliferation assay (MTS or SRB), Caki-1; assay type: cell-based; settings: Homo sapiens, 72 h; Caki-1, Kidney, 3 days; read-out: IC50 (cell growth inhibition)
Description: as §1, §2, §3

SW 780 = assay: Cell proliferation assay (MTS or SRB), SW 780; assay type: cell-based; settings: Homo sapiens, SW780, 72 h; SW 780, Bladder, 3 days; read-out: IC50 (cell growth inhibition)
Description: as §1, §2, §3

MIA PaCa-2 = assay: Cell proliferation assay (MTS or SRB), MIA PaCa-2; assay type: cell-based; settings: Homo sapiens, 72 h; MIA PaCa-2, Pancreatic, 3 days; read-out: IC50 (cell growth inhibition)
Description: as §1, §2, §3

PANC-1 = assay: Cell proliferation assay (MTS or SRB), PANC-1; assay type: cell-based; settings: Homo sapiens, 72 h; PANC-1, Pancreatic, 3 days; read-out: IC50 (cell growth inhibition)
Description: as §1, §2, §3

HT-29 = assay: Cell proliferation assay (MTS or SRB), HT-29; assay type: cell-based, human; settings: HT-29, Colon, 3 days; read-out: IC50 (cell growth inhibition)
Description: as §1, §2, §3

HCT-116 = assay: Cell proliferation assay (MTS or SRB), HCT-116; assay type: cell-based, human; settings: HCT-116, Colon, 3 days; read-out: IC50 (cell growth inhibition)
Description: as §1, §2, §3

BK virus = assay: Antiviral activity against BK virus in RPTEC cells (viral DNA by qPCR, 5 days); assay type: cell-based; settings: for EC50: Betapolyomavirus hominis, RPTEC, RPTEC cells
Description: In order to test the activity of CMX001 to inhibit replication of BK virus, stocks of BK virus were prepared in HFF cells and dilutions of the virus stocks were used to infect primary human renal tubular epithelial cells (RPTECs). CMX001 were then added to the wells containing the infected cells and the plates were incubated for 5 days. Total DNA was prepared from the plates and viral DNA was quantified by qPCR.

SMILES: N.N.[Cl][Pt][Cl] [Cisplatin]
IC50 (SiHa): 15500 nM
IC50 (C33A): 1200 nM
IC50 (SK-OV-3): 9200 nM
IC50 (OVCAR-3): 4900 nM

IC50 (SK-MEL-2): > 100000 nM
SMILES: CN(C)/N=N/c1[nH]cnc1C(N)=O [DTIC, Dacarbazine]
IC50 (A2058): > 100000 nM

IC50 (H460): 4.2 nM
IC50 (PC-3): 1.1 nM
IC50 (MCF-7): 15 nM
IC50 (A549): 1.4 nM
SMILES: CC(=O)O[C@@]12CO[C@@H]1C[C@H](O)[C@@]1(C)C(=O)[C@H](O)C3=C(C)[C@@H](OC(=O)[C@H](O)[C@@H](NC(=O)OC(C)(C)C)c4ccccc4)C[C@@](O)([C@@H](OC(=O)c4ccccc4)[C@H]21)C3(C)C [Docetaxel]
IC50 (MDA-231): 2.8 nM
IC50 (DU 145): 2.4 nM

IC50 (SK-HEP-1): 29 nM
SMILES: COc1cccc2c1C(=O)c1c(O)c3c(c(O)c1C2=O)C[C@@](O)(C(=O)CO)C[C@@H]3O[C@H]1C[C@H](N)[C@H](O)[C@H](C)O1 [Doxorubicin]
IC50 (SCaBER): 60 nM
IC50 (Hep G2): 50 nM
IC50 (Caki-2): 1230 nM
IC50 (Caki-1): 74 nM
IC50 (SW 780): 160 nM

IC50 (MIA PaCa-2): 29 nM
IC50 (PANC-1): 130 nM
SMILES: Nc1ccn([C@@H]2O[C@H](CO)[C@@H](O)C2(F)F)c(=O)n1 [Gemcitabine]

SMILES: O=C1[O][Pt]2([NH][C@@H]3CCCC[C@H]3[NH]2)[O]C1=O [Oxaliplatin]
IC50 (HT-29): 360 nM
IC50 (HCT-116): 480 nM

SMILES: Nc1nc(O)c2ncn(COC(CO)CO)c2n1 [ganciclovir]
EC50 (BK virus; virus dilution 1:10): 89000 nM
EC50 (BK virus; virus dilution 1:50): > 100000 nM
EC50 (BK virus; virus dilution 1:100): 70800 nM
activity against BK virus replication (BK virus; RPTECs, in words): essentially inactive

IC50 (SK-MEL-2): > 100000 nM
SMILES: Cn1nnc2c(C(N)=O)ncn2c1=O [temozolomide]
IC50 (A2058): > 100000 nM
